Measurements taken from PMC11469249, “Enzyme‐Triggered L‐α/D‐Peptide Hydrogels as a Long‐Acting Injectable Platform for Systemic Delivery of HIV/AIDS Drugs” (Advanced Healthcare Materials, 2023).
Where a SMILES comes first, the peptide text is derived from it. [ ]: non-standard residue; d: D form. The star is where a group is joined. X1 = Cc1cn([C@H]2C[C@H](N=[N+]=[N-])[C@@H](COC(=O)CCC(=O)*)O2)c(=O)[nH]c1=O; Acetyl(2-naphthyl) = O=C(Cc1ccc2ccccc2c1)*; pY = N[C@@H](Cc1ccc(OP(=O)(O)O)cc1)C(=O)O

Columns and labels:
NCTC 929 (ATCC CCL 1) = experiment: MTS viability assay, solubilized peptides; assay type: cell-based, murine; details: 500 µM; at each timepoint (6, 24, 72 h)
Method: Cell toxicity was assessed above and below critical gelation concentrations utilizing the International Standard (ISO) murine fibroblast subcutaneous connective tissue cell line NCTC 929 (ATCC CCL 1).^[ [51] ^]
Preparation of tissue cell cytotoxicity assays: Cells were cultured in Minimum Essential Medium (MEM) containing phenol red, Earle's Salts, and L‐glutamine supplemented with 10% fetal bovine serum and 1 mM sodium pyruvate (Invitrogen, Paisley, UK) and grown at 37 °C/5% CO2. Cells were subcultured at 80–90% confluency via removal of media, washing with sterile PBS, and detachment of cell monolayers with 0.05% trypsin/0.53 mM EDTA.4Na solution (Invitrogen, Paisley, UK). Cells were cultured until at least the third passage, seeded at 1 × 10^4 cells per well in sterile 96‐well microtiter plates for 6 h, 24 h, and 56 day treatment times and seeded at 5 × 10^3 cells per well for 72 h treatment times. […]
Following exposure to peptide after 6, 24 and 72 h, cell viability was assessed using a MTS based CellTiter 96 AQueous One Solution Cell Proliferation Assay (Promega, Southampton, UK). Absorption was measured at 490 nm using a Tecan Sunrise plate reader (Tecan UK Ltd, Reading, UK). Cell viability was calculated using Equation (2) below and reported as the mean of nine replicates.

proteinase K = proteinase K (Parengyodontium album, UniProt P06873); experiment: Biostability against proteinase K; assay type: in vitro ADME; details: after 672 h (28 days); 0.02 w/v% peptide in PBS; proteinase K 3 U/mL; 37 °C; RP-HPLC peak area vs t = 0; mean n = 3
Method: Peptides were tested for stability at multiple time points over 28 days by incubation with the broad‐spectrum protease proteinase K. Peptides were tested in solution form at concentrations below their critical gelation concentrations (0.02 w/v%) to reduce any resistance to proteolysis offered by the hydrogel matrix itself.^[ [76] ^] 1 mL aliquots of peptide dissolved in PBS buffer were added to Eppendorf tubes. Proteinase K was added at a concentration of 3 U/mL and incubated at 37 °C. Then 100 µL samples were removed at pre‐determined time points (t = 0, 0.5, 1, 3, 6, 24, 72, 168, 336, 504, and 672 h) and added to 50 µL of concentrated acetic acid to inactivate proteinase K enzyme. Then 100 µL samples were then analyzed via RP‐HPLC. The amount of peptide remaining at each time point was calculated based on the area of the peak corresponding to the peptide and presented as a percentage of the area of this peak at t = 0 (Equation (1)). (1) %Peptideremaining=Areaofpeptidepeakattesttimepoint/[Areaofpeptidepeakatt=0]×100

[1] = Small angle neutron scattering (SANS) of hydrogels; assay type: physicochemical; details: 2 w/v% hydrogels in D2O; flexible cylinder elliptical model with Power Law
Method: SANS was used to determine the morphology of the structures underpinning the hydrated peptide gel network. Both drug and non‐drug conjugated forms of peptides L‐α (NapFFKY‐OH and NapFFKYG‐OH) and D‐enantiomer (NapffkY‐OH and NapffkYG‐OH) were studied. Peptide hydrogels (2 w/v%) were formulated as described (Table S2, Supporting Information) in 2 mm path length UV spectrophotometer grade quartz cuvettes (Hellma) but using deuterated water (D2O) rather than PBS. SANS measurements were performed using the D11 instrument at the Institut Laue – Langevin, Grenoble, France. Scattering from the primary assembled structures (most commonly fibers) and the network were collected over a wide Q range (Q = 4πsin(θ/2)/λ) of 0.001 to 0.5 Å^−1 and three sample‐detector distances (1.4, 8, and 39 m).^[ [44] ^] Peptide samples were placed in a temperature‐controlled sample rack during measurements. The datasets obtained were reduced to 1D scattering curves of intensity versus Q using the facility provided software. Scattering from D2O controls, empty cuvette, and electronic background were subtracted from the data and the full detector images were normalized. SasView software version 5.0.4 was used to fit instrument‐independent data to several models with and without a power law applied, including a cylinder, an elliptical cylinder, a flexible cylinder, a flexible elliptical cylinder and hollow cylinders. […]

[2] = system: alkaline phosphatase enzyme; experiment: Rheological time sweeps, gelation time after alkaline phosphatase addition; assay type: physicochemical; details: time sweep, 2 w/v%, 2 U alkaline phosphatase, 37 °C; for G′ and G″ cross (gelation time): PP50/S parallel plate, 0.5 mm gap
Method: The gelation of peptides and peptide‐antiretroviral conjugates was tested over a range of concentrations (0.1–2 w/v%) in pH 7.4 phosphate buffered saline (PBS). The ability of alkaline phosphatase enzyme to trigger gelation was studied by adding 2 µL of 2 U (1000 U/mL) solution to the dissolved peptide‐PBS mixtures. Hydrogel formulation steps are outlined fully in Table S2, Supporting Information. A vial inversion assay was used as a screening tool to assess gel propensity, whereby peptide‐PBS‐alkaline phosphatase mixtures were inverted within glass HPLC vials. Gel formation and the mechanical strength of gels were definitively characterized via oscillatory rheology using an Anton Paar MCR302 rheometer (Anton Paar, St Albans, UK). A vane and cup geometry was used to perform frequency and strain sweeps. Gels were formulated as 2 mL volumes in 7 mL Sterilin vials as previously described.^[ [39b] ^] Frequency sweeps were performed at 37 °C from 1–100 rad/s at a strain of 0.5%. Amplitude sweeps were performed at 37 °C, 2.5 rad/s and a strain of 0.01–1000%. Flow point or breakage strain, where G″ ≥ G′ within the strain sweeps, was used as a measurement of gel strength. Time sweeps were performed using a sand blasted parallel plate PP50/S system at 37 °C with a 0.5 mm measuring gap over a period of 24 h. Loss and storage moduli, critical strain, viscosity, and oscillatory time sweeps were performed to relate rheological changes with time and potential for rapid in situ hydrogel implant formation upon exposure to 2 U phosphatase enzyme.
Table S3. Gelation times for peptide hydrogels upon addition of alkaline phosphatase enzyme derived from data above in Figure S12 and Figure 3 c-d.
Peptide G′ and G″ G′ > 2x G′′ Time for […]
d) NapFFK(AZT)Y-OH 8.5 min 9 min 88.3 min

NCTC 929 cells = experiment: 56 day indirect toxicity of hydrogels, LDH; assay type: cell-based, murine; details: 2 w/v% hydrogel supernatant; 6 h exposure; n = 3
Method: Biocompatibility at the highest gel concentration of 2.0 w/v% was examined by measuring cell metabolic activity (MTS) and cytotoxicity (LDH release) in the presence of media containing leached degradation products from the peptide gels over a period of 56 days.^[ [77] ^] Following the formation of gels as outlined in Table S2, Supporting Information, 2 mL of media was added on top of each gel (1 mL of 2 w/v% gel) within a 10 mL glass vial and incubated at 37 °C and 5% CO2. For each time point in the 56 day study, NCTC 929 cells at 80–90% confluency were seeded into the wells of a 96 well plate at a concentration of 1 × 10^4 cells per well and incubated for a period of 24 h. One set of wells was left untreated and acted as the negative control, that is, metabolic activity of cells with no peptide. In the case of the LDH indirect toxicity assay, the media was removed from the cells before adding 50 µL of fresh media and 50 µL of the supernatant from the 2.0 w/v% gels at specific time points: 1, 3, 7, 14, 21, 28, and 56 days and incubated for 6 h before adding the test reagent as described above. A high LDH release control and a low LDH release control were created as before. Each experiment was performed in triplicate. The percentage cytotoxicity was calculated using Equation (2) above. […] The metabolic activity was calculated using Equation (1) above.

Sequence of proteinase K (P06873 106-384): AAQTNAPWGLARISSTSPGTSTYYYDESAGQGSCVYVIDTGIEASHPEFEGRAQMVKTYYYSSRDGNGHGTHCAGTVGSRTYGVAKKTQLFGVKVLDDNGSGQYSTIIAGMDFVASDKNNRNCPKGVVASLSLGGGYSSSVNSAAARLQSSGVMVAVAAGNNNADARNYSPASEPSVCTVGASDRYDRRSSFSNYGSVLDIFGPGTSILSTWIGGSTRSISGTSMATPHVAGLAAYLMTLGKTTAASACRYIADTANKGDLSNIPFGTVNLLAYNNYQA

Question: For `Cc1cn([C@H]2C[C@H](N=[N+]=[N-])[C@@H](COC(=O)CCC(=O)NCCCC[C@H](NC(=O)[C@H](Cc3ccccc3)NC(=O)[C@H](Cc3ccccc3)NC(=O)Cc3ccc4ccccc4c3)C(=O)N[C@@H](Cc3ccc(OP(=O)(O)O)cc3)C(=O)O)O2)c(=O)[nH]c1=O` [NapFFK(AZT)Y(p)-OH] ({Acetyl(2-naphthyl)}-FFK(X1)[pY]-OH), which “reduction in cell metabolic activity (MTS)” value (NCTC 929 (ATCC CCL 1)) is on record?
Answer: 40–51%

Question: With `Cc1cn([C@H]2C[C@H](N=[N+]=[N-])[C@@H](COC(=O)CCC(=O)NCCCC[C@H](NC(=O)[C@H](Cc3ccccc3)NC(=O)[C@H](Cc3ccccc3)NC(=O)Cc3ccc4ccccc4c3)C(=O)N[C@@H](Cc3ccc(OP(=O)(O)O)cc3)C(=O)NCC(=O)O)O2)c(=O)[nH]c1=O` [NapFFK(AZT)Y(p)G-OH] as the compound, how does the “zidovudine blood plasma concentrations for 35 days” value (subcutaneous administration, within IC50 range) read?
Answer: 30 to 130 ng/mL

Question: For `NCCCC[C@H](NC(=O)[C@H](Cc1ccccc1)NC(=O)[C@H](Cc1ccccc1)NC(=O)Cc1ccc2ccccc2c1)C(=O)N[C@@H](Cc1ccc(OP(=O)(O)O)cc1)C(=O)O` [NapFFKY(p)-OH, phosphorylated (naphthalene‐2‐ly)‐acetyl‐diphenylalanine‐lysine‐tyrosine‐OH] (HELM PEPTIDE1{[O=C(Cc1ccc2ccccc2c1)[*:2]].F.F.K.[O=C(O)[C@H](Cc1ccc(OP(=O)(O)O)cc1)N[*:1]]}$$$$V2.0), which “% peptide remaining” value (proteinase K) is on record?
Answer: 85.4%

Question: For `NCCCC[C@H](NC(=O)[C@H](Cc1ccccc1)NC(=O)[C@H](Cc1ccccc1)NC(=O)Cc1ccc2ccccc2c1)C(=O)N[C@@H](Cc1ccc(OP(=O)(O)O)cc1)C(=O)NCC(=O)O` [NapFFKY(p)G-OH], which “% peptide remaining” value (proteinase K) is on record?
Answer: 91.9%

Question: For `Cc1cn([C@H]2C[C@H](N=[N+]=[N-])[C@@H](CO)O2)c(=O)[nH]c1=O` [zidovudine, reference compound], which “time after which plasma zidovudine is undetectable” value (zidovudine intravenous control) is on record?
Answer: 6 h

Question: Which fiber radius [1] does the source give for “NapFFKY-OH [hydrogel-forming peptide after phosphatase removal of the phosphate group]” here?
Answer: 1.495 nm

Question: And the “G′ > 2x G″” value [2]?
Answer: 9.67 min

Question: What about the “Time for stable G′” value [2] of the same compound?
Answer: 68.3 min

Question: And the “G′ and G″ cross (gelation time)” value [2]?
Answer: 8.58 min

Question: Which results are given for “NapFFKYG-OH [hydrogel-forming L-α peptide with glycine spacer]”?
Answer: fiber radius [1]: 2.038 nm; LDH cell toxicity, indirect, after 21 days (NCTC 929 cells): 23.2%; LDH cell toxicity, indirect, after 56 days (NCTC 929 cells): 37%; G′ > 2x G″ [2]: 7.75 min; Time for stable G′ [2]: 65.7 min; G′ and G″ cross (gelation time) [2]: 5.92 min
